As a reminder, the IC50 is the point on the concentration scale where inhibition reaches its midpoint. Low values mean inhibition by little substance, high ones a need for much substance.

We go through 13 molecules from ChEMBL document CHEMBL1129537, “The squalestatins: inhibitors of squalene synthase. Enzyme inhibitory activities and in vivo evaluation of C3-modified analogues” (J Med Chem, 1996).

Assay [1] addresses T1, Squalene synthase (Rattus norvegicus, UniProt Q02769).
T1 sequence (Q02769 whole entry): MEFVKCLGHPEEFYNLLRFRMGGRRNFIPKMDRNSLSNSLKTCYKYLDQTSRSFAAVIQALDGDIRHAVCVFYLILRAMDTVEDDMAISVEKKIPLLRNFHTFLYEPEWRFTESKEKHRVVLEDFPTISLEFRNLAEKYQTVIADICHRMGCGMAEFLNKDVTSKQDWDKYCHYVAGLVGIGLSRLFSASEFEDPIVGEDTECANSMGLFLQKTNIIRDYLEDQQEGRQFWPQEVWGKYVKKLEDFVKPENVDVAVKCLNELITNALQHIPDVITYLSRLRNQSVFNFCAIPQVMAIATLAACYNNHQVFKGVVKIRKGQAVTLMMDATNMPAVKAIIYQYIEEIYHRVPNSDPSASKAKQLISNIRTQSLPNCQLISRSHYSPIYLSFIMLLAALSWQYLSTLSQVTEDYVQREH
Briefly: In vitro inhibitory activity against Squalene synthase from rats.

A short description of assay [2]: Effect on % of cholesterol reduction measured on serum cholesterol level in marmosets after single iv dose 16.7 mg/kg on day 3. Format: functional, Callitrichinae.
Assay [3] is described as follows: Effect on % of cholesterol reduction measured on serum cholesterol level in marmosets after single iv dose 30 mg/kg on day 3. The format is functional, Callitrichinae.
Assay [4] can be described thus: Effect on % of cholesterol reduction measured on serum cholesterol level in marmosets after single iv dose 30 mg/kg on day 7. Format: functional, Callitrichinae.
Assay [5] can be described thus: Effect on % of cholesterol reduction measured on serum cholesterol level in marmosets after single iv dose 16.7 mg/kg on day 2. The format is functional, Callitrichinae.
Assay [6] can be described thus: Effect on % of cholesterol reduction measured on serum cholesterol level in marmosets after single iv dose 50 mg/kg on day 3. Format: functional, Callitrichinae.
A short description of assay [7]: Effect on % of cholesterol reduction measured on serum cholesterol level in marmosets after single iv dose 10 mg/kg on day 3. Format: functional, Callitrichinae.
Assay [8] is described as follows: Effect on % of cholesterol reduction measured on serum cholesterol level in marmosets after single iv dose 10 mg/kg on day 2. Format: functional, Callitrichinae.
A short description of assay [9]: Effect on % of cholesterol reduction measured on serum cholesterol level in marmosets after single iv dose 30 mg/kg on day 2. Format: functional, Callitrichinae.
Assay [10] can be described thus: Effect on % of cholesterol reduction measured on serum cholesterol level in marmosets after single iv dose 50 mg/kg on day 7. The format is functional, Callitrichinae.
A short description of assay [11]: Effect on % of cholesterol reduction measured on serum cholesterol level in marmosets after single iv dose 50 mg/kg on day 2. Format: functional, Callitrichinae.
A short description of assay [12]: Effect on % of cholesterol reduction measured on serum cholesterol level in marmosets after single iv dose 10 mg/kg on day 7. Format: functional, Callitrichinae.
Assay [13] is described as follows: Effect on % of cholesterol reduction measured on serum cholesterol level in marmosets after single iv dose (3 times a day for 3 days) 16.7 mg/kg on day 7. The format is functional, Callitrichinae.

In assay [1], `C=C(CC[C@]12O[C@H](CNC(N)=O)[C@@](O)(C(=O)O)[C@](C(=O)O)(O1)[C@H](O)[C@H]2O)[C@@H](OC(C)=O)[C@H](C)Cc1ccccc1` had an IC50 of over 1000 nM.

As to `C=C(CC[C@]12O[C@H](CNS(=O)(=O)C(F)(F)F)[C@@](O)(C(=O)O)[C@](C(=O)O)(O1)[C@H](O)[C@H]2O)[C@@H](OC(C)=O)[C@H](C)Cc1ccccc1`, the IC50 in assay [1] amounted to 1000 nM. In other words, the single-digit micromolar range.

Take `C=C(CC[C@]12O[C@H](COC)[C@@](O)(C(=O)O)[C@](C(=O)O)(O1)[C@H](O)[C@H]2O)[C@@H](OC(C)=O)[C@H](C)Cc1ccccc1`: the IC50 in [1] is over 1000 nM.

`C=C(CC[C@]12O[C@H](C(C)=O)[C@@](O)(C(=O)O)[C@](C(=O)O)(O1)[C@H](OC(=O)/C=C/[C@@H](C)C[C@@H](C)CC)[C@H]2O)[C@@H](OC(C)=O)[C@H](C)Cc1ccccc1`: in assay [1], the midpoint of inhibition, the IC50, lay at 11 nM.

For the molecule `C=C(CC[C@]12O[C@H](CN(C)C)[C@@](O)(C(=O)O)[C@](C(=O)O)(O1)[C@H](OC(=O)/C=C/[C@@H](C)C[C@@H](C)CC)[C@H]2O)[C@@H](OC(C)=O)[C@H](C)Cc1ccccc1`, half-maximal inhibition in assay [1] (IC50) required 10 nM.

In assay [1], `C=C(CC[C@]12O[C@H](CNS(=O)(=O)C(F)(F)F)[C@@](O)(C(=O)O)[C@](C(=O)O)(O1)[C@H](OC(=O)/C=C/[C@@H](C)C[C@@H](C)CC)[C@H]2O)[C@@H](OC(C)=O)[C@H](C)Cc1ccccc1` came in with an IC50 of 60 nM.

As to `C=C(CC[C@]12O[C@H](CO)[C@@](O)(C(=O)O)[C@](C(=O)O)(O1)[C@H](OC(=O)/C=C/[C@@H](C)C[C@@H](C)CC)[C@H]2O)[C@@H](OC(C)=O)[C@H](C)Cc1ccccc1`, the Reduction was 62% in assay [2]; 20% in assay [3]; 16% in assay [4]; 47% in assay [5]; 21% in assay [6]; 2% in [7]. The Reduction was determined as 5% in [8]; 30% in [9]; 28% in assay [10]; 31% in [11]; 14% in assay [12]; 32% in [13].

In turn, `C=C(CC[C@]12O[C@H](CN=C(N)N)[C@@](O)(C(=O)O)[C@](C(=O)O)(O1)[C@H](OC(=O)/C=C/[C@@H](C)C[C@@H](C)CC)[C@H]2O)[C@@H](OC(C)=O)[C@H](C)Cc1ccccc1` came in with a 50% inhibitory concentration (IC50) in assay [1] of 65 nM. This lies in the double-digit nanomolar range.

Molecule `C=C(CC[C@]12O[C@H](CN)[C@@](O)(C(=O)O)[C@](C(=O)O)(O1)[C@H](OC(=O)/C=C/[C@@H](C)C[C@@H](C)CC)[C@H]2O)[C@@H](OC(C)=O)[C@H](C)Cc1ccccc1` yielded an IC50 in assay [1] of 4 nM.

In [1], `C=C(CC[C@]12O[C@H](CN)[C@@](O)(C(=O)O)[C@](C(=O)O)(O1)[C@H](O)[C@H]2O)[C@@H](OC(C)=O)[C@H](C)Cc1ccccc1` displayed an IC50 of over 1000 nM.

As to `C=C(CC[C@]12O[C@H](CNC(N)=O)[C@@](O)(C(=O)O)[C@](C(=O)O)(O1)[C@H](OC(=O)/C=C/[C@@H](C)C[C@@H](C)CC)[C@H]2O)[C@@H](OC(C)=O)[C@H](C)Cc1ccccc1`, half-maximal inhibition in assay [1] (IC50) required 3 nM.

Take `C=C(CC[C@]12O[C@H](C(C)=O)[C@@](O)(C(=O)O)[C@](C(=O)O)(O1)[C@H](O)[C@H]2O)[C@@H](OC(C)=O)[C@H](C)Cc1ccccc1`: in assay [1], half-maximal inhibition (IC50) was put at 500 nM.

As to `C=C(CC[C@]12O[C@H](COC)[C@@](O)(C(=O)O)[C@](C(=O)O)(O1)[C@H](OC(=O)/C=C/[C@@H](C)C[C@@H](C)CC)[C@H]2O)[C@@H](OC(C)=O)[C@H](C)Cc1ccccc1`, in assay [1], the IC50 is 13 nM.
